Assay results taken from patent publication US8410287B2 (McNeil-PPC, Inc., priority 2010, dated 2013).

Columns and labels:
[1] = stability toward air: neutralization of the salt by CO2 and water to neutral Cel (Cel-III); type: physicochemical
Source text: The behavior was first observed when using compressed air instead of nitrogen in the dynamic vapor sorption experiment, but it was also clear in samples stored open in controlled humidity chambers. The neutralization was minimized to get clean PXRD patterns by including small vials of concentrated NaOH solution within the closed humidity chambers to remove CO2 from the air. […] Throughout the conversion, both Cel-III and the sodium salt are clearly observed by PXRD with Cel-III growing slowly over time.

[2] = Dynamic Vapor Sorption (DVS) moisture sorption analysis; type: physicochemical
Procedure: Moisture sorption analysis was performed using a Dynamic Vapor Sorption apparatus (Surface Measurement Systems, Monarch Beach, Calif.). Each sample was placed in a clean glass crucible and equilibrated in the apparatus at a specified RH level. Varying the flow rates of dry nitrogen gas and saturated wet nitrogen gas streams controlled RH; the total combined flow rate was kept constant at 200 standard […] per minute. After initial equilibration, RH was varied and change in mass was recorded over time as an indication of moisture sorption. Mass equilibration at each humidity level was determined as a change in mass less than ±2×10^−5 grams over a time interval of 1 minute (dm/dt of 0.002% min). After the assay, the change in mass was mathematically converted to water molar equivalents per dry compound molar equivalent.
The dynamic vapor sorption profiles were measured starting with Cel-NaPG at 0% RH, and for Cel-NaPG(H2O)3 beginning at 20% RH to avoid dehydrating it prior to the first absorption cycle. The profiles are shown in FIG. 12 alongside PXRD patterns for samples of Cel-NaPG stored in controlled humidity chambers for 1-2 days.

[3] = storage in controlled humidity chambers monitored by PXRD (physical form stability); type: physicochemical
Source text: Indeed, understanding the behavior of the salt form before the single crystal structure was solved was challenging in that the powder patterns seemed to change almost daily, even when powders were equilibrated in humidity chambers prior to measurement. […] Consistent powder patterns were obtained by two distinct methods. In the first method, powder was filled into 0.5 mm capillary tubes, equilibrated in controlled humidity chambers for 1 week, sealed with silicone grease immediately upon removal from the humidity chambers, and measured immediately with a transmission powder X-ray diffractometer. In the second, a sample was monitored by a reflectance mode powder X-ray diffractometer fitted with a controlled humidity stage. The two methods were complimentary. The capillary method provided high resolution patterns without preferred orientation effects. However, the humidity control was coarse and was limited to conditions that could be achieved with standard saturated salt solutions.
The rate of conversion to Cel-NaPG(H2O)3 is very slow at 18% RH and increases to the point where conversion takes less than one day at 54% RH or higher.

[4] = 1H NMR determination of Cel:PG ratio after exposure to 0% RH and 40% RH in the DVS; type: physicochemical
Procedure: ^1H NMR measurements were conducted using a Varian 400 MHz spectrometer with averaging of 128 scans. Samples were prepared as 10 mg/ml solutions of Cel in CDCl3.
Increased lability and loss of PG during the transition from anhydrous to trihydrate was believed to be the most likely explanation for the weight loss. ^1H NMR was used to determine whether the PG solvate is lost continuously throughout the humidity cycle or only during change in the hydration state. Cel-NaPG and Cel-NaPG(H2O)3 were exposed to 0% RH and 40% RH in the DVS and then dissolved in methanol-d4 for NMR analysis. The Cel:PG ratio was stable at 1/1 for Cel-NaPG(H2O)3 after treatment for either four hours at 40% RH or 18 hours at 0% RH. […] Since the Cel-NaPG(H2O)3 has a wide range of physical stability, conversion from the trihydrate to the anhydrous and then back to the trihydrate should be a rare event. In a closed system such as a packaged tablet, PG should not be lost as easily as it is in the dynamic environment of the DVS where gases continuously flow over the sample to carry away any volatile components.

TGA = type: physicochemical
[5] = cited from earlier work
physchem = conditions: aqueous sodium hydroxide solution, pH 12, aqueous buffer

Cc1ccc(-c2cc(C(F)(F)F)nn2-c2ccc(S(N)(=O)=O)cc2)cc1 [Cel-Na(H2O)x]
physical stability in a sealed vial ([1]; sealed vial): physically stable

CC(O)CO.Cc1ccc(-c2cc(C(F)(F)F)nn2-c2ccc(S([NH-])(=O)=O)cc2)cc1.O.O.O.[Na+] [Cel-NaPG(H2O)3, propylene glycol solvate of celecoxib sodium trihydrate]
reversible weight gain ([2]; between 10 and 70% RH at 25° C.): 1.2 % weight
loss of dry weight after a single humidity cycle ([2]; started at 20% RH, single humidity cycle): no loss was seen
conversion to Cel-NaPG (dehydration) ([3]; 4 days of storage over the 18% RH salt bath): no conversion to Cel-NaPG
reaction with CO2 and water in the air [1]: resistant to reaction with CO2 and water in the air
conversion to neutral Cel ([1]; after 4 days at 45 66% RH): no conversion was observed

CC(O)CO.Cc1ccc(-c2cc(C(F)(F)F)nn2-c2ccc(S([NH-])(=O)=O)cc2)cc1.[Na+] [Cel-NaPG]
additional weight loss after going through the entire DVS profile ([2]; 25° C., after desorption): 2 % weight
weight gain during adsorption ([2]; DVS profile started at 0% RH, 25° C.): ~14 % weight
time for conversion to Cel-NaPG(H2O)3 ([3]; 54% RH or higher): less than one
PG lost ([4]; over four hours at 40% RH): 8.2%
stability of PG content ([4]; stream of dry nitrogen for 18 hours (0% RH)): remaining stable
temperature until which PG is retained (TGA) (TGA; under a flow of nitrogen): approximately 80 °C
water gained (TGA) (TGA; within 1 day, stored in a 38% RH chamber): about 2 equiv

Cc1ccc(-c2cc(C(F)(F)F)nn2-c2ccc(S(N)(=O)=O)cc2)cc1 [celecoxib]
aqueous solubility of celecoxib at physiological pH [5]: < 0.5 μg/ml
solubility (physchem): ≥ 380 mg/mL
